The source of these data is patent publication US20210161147A1, “BROAD SPECTRUM COSMETIC PRESERVATIVE SYSTEM” (priority 2019, published 2021).

This assay has as its system microbes (bacteria and fungi). In words: USP 51, Antimicrobial Effectiveness Test. It counts as cell-based. The note with it: combined with 12.5 ppm colloidal silver; aqueous solution containing seaweed extract.

Take `CS(C)(=O)=O` [MSM, methylsulfonylmethane]: the “sufficient concentration of MSM for effective cosmetic preservation per USP 51” value is recorded as 10 % (w/w).
